# Experimental data taken from ChEMBL document CHEMBL1147565, “Imidazo[1,2-a]pyridines. Part 2: SAR and optimisation of a potent and selective class of cyclin-dependent kinase inhibitors” (Bioorg Med Chem Lett, 2004).
# Tests used:
# [1] = biological target: Cyclin-dependent kinase 2 (Homo sapiens, UniProt P24941); assay: Inhibitory concentration against cyclin-dependent kinase 2
# MCF7 [2] = assay: Inhibitory activity against BrdU incorporation to MCF-7 cell line following 3 day exposure to compound; format: functional, cell-based; settings: Homo sapiens, MCF7, 72 h
# [3] = biological target: Cyclin-dependent kinase 1 (Homo sapiens, UniProt P06493); assay: Inhibition of Cyclin-dependent kinase 1
# Cyclin-dependent kinase 1, sequence (P06493 whole entry): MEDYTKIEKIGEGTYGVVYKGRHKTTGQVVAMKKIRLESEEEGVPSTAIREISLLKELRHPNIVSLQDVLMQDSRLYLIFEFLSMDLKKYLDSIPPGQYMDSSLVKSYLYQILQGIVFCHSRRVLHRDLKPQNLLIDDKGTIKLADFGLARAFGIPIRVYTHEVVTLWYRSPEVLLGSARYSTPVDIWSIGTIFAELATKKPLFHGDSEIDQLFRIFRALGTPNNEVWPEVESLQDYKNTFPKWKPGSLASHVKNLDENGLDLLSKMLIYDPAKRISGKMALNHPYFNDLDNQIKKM
# [4] = biological target: Cyclin-dependent kinase 4 (Homo sapiens, UniProt P11802); assay: Inhibition of Cyclin-dependent kinase 4
# Cyclin-dependent kinase 4, sequence (P11802 whole entry): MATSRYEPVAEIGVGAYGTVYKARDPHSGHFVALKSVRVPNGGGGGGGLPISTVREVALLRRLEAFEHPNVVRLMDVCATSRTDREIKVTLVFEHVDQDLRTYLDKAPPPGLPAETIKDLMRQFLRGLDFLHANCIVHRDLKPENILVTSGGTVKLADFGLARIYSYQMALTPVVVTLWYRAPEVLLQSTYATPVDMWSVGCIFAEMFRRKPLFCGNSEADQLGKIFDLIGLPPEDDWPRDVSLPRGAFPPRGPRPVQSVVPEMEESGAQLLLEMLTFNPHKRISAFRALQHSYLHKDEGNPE
# MCF7 [5] = assay: Inhibition of cyclin-dependent kinase phosphorylation of S249-T252 of Rb protein in MCF-7 cells; format: functional, cell-based; settings: Homo sapiens
Structure (SMILES),IC50 [1] [nM],further results
Cc1nc2ccccn2c1-c1ccnc(Nc2ccccc2Cl)n1,8800,
CNS(=O)(=O)c1ccc(Nc2nccc(-c3cnc4ccccn34)n2)cc1,< 3,IC50 (MCF7 [2]): 260 nM
COCCNS(=O)(=O)c1ccc(Nc2nccc(-c3cnc4ccccn34)n2)cc1,12,IC50 (MCF7 [2]): 390 nM
CN(C)CCCN(C)S(=O)(=O)c1ccc(Nc2nccc(-c3cnc4ccccn34)n2)cc1,5,IC50 (MCF7 [2]): 440 nM
CN(C)CCCNS(=O)(=O)c1ccc(Nc2nccc(-c3cnc4ccccn34)n2)cc1,< 3,IC50 (MCF7 [2]): 70 nM
CN(C)CCNS(=O)(=O)c1ccc(Nc2nccc(-c3cnc4ccccn34)n2)cc1,5,IC50 [3]: 15 nM; IC50 [4]: 260 nM; IC50 (MCF7 [5]): 50 nM; IC50 (MCF7 [2]): 70 nM
COCCNS(=O)(=O)c1ccc(Nc2ncc(Sc3ccccc3)c(-c3cnc4ccccn34)n2)cc1,> 10000,
COCCCNS(=O)(=O)c1ccc(Nc2nccc(-c3cnc4ccccn34)n2)cc1,4,IC50 [3]: 6 nM; IC50 [4]: 3100 nM; IC50 (MCF7 [5]): 400 nM; IC50 (MCF7 [2]): 600 nM
Clc1cccc(Nc2nccc(-n3cnc4ccccc43)n2)c1,680,

# The next lines start with results.
IC50 [1] [nM],Structure (SMILES),further results
16,COCCNS(=O)(=O)c1ccc(Nc2nccc(-c3cnc4ccc(Sc5ccccc5)cn34)n2)cc1,
< 3,COCCNS(=O)(=O)c1ccc(Nc2nccc(-c3cnc4ccc(C#N)cn34)n2)cc1,
< 3,COCCNS(=O)(=O)c1ccc(Nc2ncc(Br)c(-c3cnc4ccccn34)n2)cc1,
210,Cc1nc2ccccn2c1-c1ccnc(Nc2ccccc2)n1,
< 3,COCCNS(=O)(=O)c1ccc(Nc2ncc(Cl)c(-c3cnc4ccccn34)n2)cc1,
5,Clc1cccc(Nc2nccc(-c3cnc4ccccn34)n2)c1,
38,Cc1nc2ccccn2c1-c1ccnc(Nc2ccc(S(N)(=O)=O)cc2)n1,
< 3,c1ccc(Nc2nccc(-c3cnc4ccccn34)n2)cc1,
< 3,COCCNS(=O)(=O)c1ccc(Nc2nccc(-c3cnc4ccc(Br)cn34)n2)cc1,
150,Cc1nc2ccccn2c1-c1ccnc(Nc2cccc(Cl)c2)n1,
< 3,CCSc1ccc2ncc(-c3ccnc(Nc4ccc(S(=O)(=O)NCCOC)cc4)n3)n2c1,
< 3,NS(=O)(=O)c1ccc(Nc2nccc(-c3cnc4ccccn34)n2)cc1,
620,Cc1nc2ccccn2c1-c1ccnc(Nc2ccc(Cl)cc2)n1,
